According to US20220098620A1, “NOVEL NUCLEIC ACID MODIFIERS” (THE BROAD INSTITUTE, INC., priority 2019, published 2022):

System: GAPDH locus
Assay: HiBiT sequence knock-in assay (NanoLuc luciferase complementation)
Type: cell-based
Text: FIG. 39A-39E—Schematic of the HiBiT assay to check the HDR-mediated knock-in of the 33-nt DNA fragment. (FIG. 39A) General gRNA and ssODN design strategy for HDR-based HiBiT sequence knock-in right before the stop codon of the gene of interest. (FIG. 39B) The knock-in results in the expression of a fusion protein having a C-terminal HiBiT tag, which is a small fragment of the NanoLuc luciferase. When an excess amount of the other fragment of NanoLuc (LgBiT) is supplied, a fully functional NanoLuc is reconstituted. The resulting luminescence signal is proportional to the HDR efficiency. […]
Applicants then designed an ssODN that would insert a 33-nt DNA fragment (HiBiT sequence) at a gene of interest by HDR pathway (FIG. 39A). […] When complemented by LgBiT, the remainder of NanoLuc, the full-length luciferase is reconstituted to generate a luminescence signal proportional to the degree of ssODN incorporation, providing an easy readout for measuring the level of HDR (FIG. 39B). Applicants chose GAPDH as the first target gene (FIG. 39C) owing to its abundant expression in many cell types, which should allow for the reliable detection of the luminescence signal. […] Using the negative control ssODN without the complementary sequence, Applicants determined if appending the DNA adaptor to the cysteine affected Cas9 activity using the HiBiT insertion assay (FIG. 13b). […]

O=c1cc(N2CCOCC2)oc2c(-c3cccc4c3sc3ccccc34)cccc12 [KU-57788]
HDR enhancement by NHEJ pathway inhibitors in the HiBiT assay: enhanced HDR enhancement

CCN1CCN(CC(=O)Nc2ccc(-c3cccc4c(=O)cc(N5CCOCC5)oc34)c3sc4ccccc4c23)CC1 [KU-0060648]
HDR enhancement by NHEJ pathway inhibitors in the HiBiT assay: enhanced HDR enhancement
